The source of these data is patent EP0697407B1, “Pyrimidinedione derivatives and antiarrhythmic compositions containing same” (MITSUI TOATSU CHEMICALS, Inc., priority 1994, dated 1996).

Data set [1] in a line: Toxicity test (mortality rate 24 hours after administration). The settings on record: mouse, in vivo, ip; 100 mg/kg (i.p.); twenty-four hours after administration; groups of three mice. The protocol: The test compounds were separately administered to mice (ddy strain, male). The administration of each compound was carried out intraperitoneally (i.p.) in a dose of 100 mg/kg. Twenty-four hours after the administration, the mortality rate of the mice (in groups of three) was examined.

Another data set relates to ventricular muscle. The experiment in a line: Effect on ventricular muscle refractory period (ERP) under ventricular pacing in anesthetized dog. In kind it is in vivo, mongrel adult dog. As to conditions: ventricular pacing at 400 msec. The protocol:
According to the method described below, the refractory period was measured before and after the intravenous administration of each test compound, and the percent prolongation of refractory period (ERP) was calculated according to the following equation. ERP prolongation (%) =(W - Y)/(Y)x 100 [formula] where W: Refractory period after administration Y: Refractory period before administration
After a mongrel adult dog was anesthetized by the intravenous (i.v.) administration of 30 mg/kg of pentobarbital, the chest was opened on the right side. Then, a set of silver-silver chloride electrodes spaced by 3 mm was sewn on the right ventricle, and […] electrical stimuli (a duration of 4 msec, and a current intensity equal to twice the threshold) were given at an interval of 400 msec. Thereafter, a small amount of alcohol was injected into a sinus artery in order to destroy the pacemaker activity, and the ventricular refractory period (ERP) was measured under ventricular pacing. Specifically, one train comprised a series of stimuli having an interval of 400 msec, and the interval between trains was usually 400 msec. During measurement of the refractory period, this interval was shortened by decrements of 10 msec, and the interval between trains at which the response to the first stimulus of the train disappeared was regarded as the refractory period. These electrical stimuli were given by programmed stimulation using a heart stimulation apparatus (Diamedical Co., Ltd.; DHM-226-3).

The test system of a further data set is right Purkinje fiber. The experiment in a line: Effect on myocardial action potential duration (APD75) in isolated, perfused Purkinje fiber. Type of data set: cell-based, mongrel adult dog. The settings on record: Canis lupus familiaris, 20 min, 20 minutes' incubation, field stimulus of 1 Hz, 37°C, read-out: T (%), percent prolongation of myocardial action potential duration (APD75); for activation at 1 µM: Dose 1 x 10^-6 M; for activation at 10 µM: Dose 10 x 10^-6 M; for activation at 100 µM: Dose 100 x 10^-6 M. The protocol: After a mongrel adult dog was anesthetized by the intravenous administration of 30 mg/kg of pentobarbital, the heart was excised therefrom. Then, the right Purkinje fiber was isolated in a nutrient fluid (i.e., Tyrode's solution). The isolated right Purkinje fiber was fixed in a constant-temperature bath (20 ml) at 37°C and perfused with Tyrode's solution. In this state, the myocardial action potential duration (APD75) was measured before and after the administration of each test compound. Then, the percent prolongation of myocardial action potential duration (T) after the administration of each test compound was calculated according to the following equation. T(%) =(B - A)/(A)x 100 [formula] where A: APD75 before administration B: APD75 after administration
APD75 was measured as follows: A field stimulus of 1 Hz was given to the right Purkinje fiber, and any change in action potential was detected by a glass microelectrode (10-20 MΩ) penetrated into a Purkinje fiber and monitored on an oscilloscope via an amplifier. The waveform on the oscilloscope was analyzed by means of a computer, and the duration beween the point of action potential generation adn the point of 75% repolarization was defined as APD75. The test compounds shown in Table 2 were separately added to the perfusing nutrient fluid, and after 20 minutes' incubation was recorded. This test was carried out according to the method of Sato et al. [S. Sato, K. Hashimoto; Arzneimittel Forschung, 34(1), 3a, 376-380(1984)].

Data set [2] can be described thus: Stability test in acid aqueous solution (Solution 1 of the Japanese Pharmacopoeia, pH 1.2), remaining compound by HPLC. In kind it is physicochemical. The settings on record: Solution 1 (pH 1.2), 2 mg/ml, stirred at 37°C, HPLC. As to the method:
In order to confirm the stability of the compounds of the present invention in an acid aqueous solution, stability was tested on the fumarate of 6-[3-[N-[2-(4-methanesulfonylaminophenyl)ethyl]-N-propylamino]propyl]-1,3-dimethyl-2,4(1H,3H)pyrimidinedione (the compound obtained in Example 118; hereinafter referred to as compound A) which is a compound in accordance with the present invention, and 1,3-dimethyl-6-{2-[N-ethyl-3-phenylpropylamino]ethylamino}2,4(1H,3H)-pyrimidinedione (hereinafter referred to as compound B) which is a pyrimidinedione derivative having a substituted amino group at the 6-position of the pyrimidinedione ring as described in European Publication No. 454,498 A2 and was used for purposes of comparison.
Solution 1 (pH 1.2) described in the Japaense Pharmacopoeia was prepared by adding 7.0 ml of hydrochloric acid and water to 2.0 g of sodium chloride so as to give the final volume of 1,000 ml.
Compounds A and B were dissolved in Solution 1 at a concentration of 2 mg/ml and the resulting solutions were stirred at 37°C. Thus, changes with time in the percentages of the remaining compounds A and B were examined by HPLC.

One may read the mortality as the percentage killed. Higher therefore signals a strong lethal effect. As a reminder, the share remaining is the share of the starting amount still present when the sample was taken.

`CCCN(CCCc1cc(=O)n(C)c(=O)n1C)CCOc1ccc(NS(C)(=O)=O)cc1` [Example 121, 6-[3-[N-n-propyl-N-[2-(4-methanesulfonylaminophenoxy)ethyl]amino]propyl]-1,3-dimethyl-2,4(1H,3H)pyrimidinedione] gave a mortality at 24 h in data set [1] of 0%. Further, the “ERP (%), percent prolongation of refractory period” value (“ERP (%), percent prolongation” below) with ventricular muscle (Dose 0.1 mg/kg i.v.) is listed as 6.2%. Besides, in the data set with ventricular muscle (Dose 0.3 mg/kg i.v.), the “ERP (%), percent prolongation” value was determined as 20.0%. Also, the “ERP (%), percent prolongation” value with ventricular muscle (Dose 1.0 mg/kg i.v.) is listed as 33.3%. Besides, in the data set with right Purkinje fiber, the activation at 1 µM was determined as 17%, the activation at 10 µM was found to be 68% and the activation at 100 µM is 103%.
On to `CCCN(CCCc1cc(=O)n(C)c(=O)n1C)CCc1ccc(NS(C)(=O)=O)cc1` [Example 118, 6-[3-[N-[2-(4-methanesulfonylaminophenyl)ethyl]-N-propylamino]propyl]-1,3-dimethyl-2,4(1H,3H)pyrimidinedione], for which the mortality at 24 h in data set [1] is 0%. Also, the “Percentage of remaining compound” value in data set [2] (0 hr) stood at 100%. For the same compound, the fraction remaining at 3 h in data set [2] (jp solution 1, 3 hr, read-out: Percentage of remaining compound) was found to be 100%. Further, the amount remaining at 6 h in data set [2] (jp solution 1, 6 hr, read-out: Percentage of remaining compound) worked out at 99%. In addition, the “ERP (%), percent prolongation” value in the data set with ventricular muscle (Dose 0.1 mg/kg i.v.) is recorded as 6.7%. In the data set with ventricular muscle (Dose 0.3 mg/kg i.v.), the “ERP (%), percent prolongation” value is listed as 20.0%. Moreover, the “ERP (%), percent prolongation” value in the data set on ventricular muscle (Dose 1.0 mg/kg i.v.) was 33.3%. In the data set with right Purkinje fiber, the activation at 1 µM is 16%, the activation at 10 µM amounted to 54% and the activation at 100 µM came out at 81%.
